From paper PMC11601558, “SLC6A19 inhibition facilitates urinary neutral amino acid excretion and lowers plasma phenylalanine” (JCI Insight, 2024)
“And” between values parts separate entries of the source, which are not always exact repeats. Equal values may be shown once.

Test system: Pah^enu2 mice
Assay: Plasma Phe in Pah^enu2 mice on defined amino acid diets (0.75%, 0.45%, 0.225% Phe)
Format: in vivo, mouse
Set-up: plasma Phe: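 plasma Phe concentration in µM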
Conditions: for mean plasma Phe lower than vehicle / plasma Phe, mean ± SD: 200 mg/kg, 3 hours after dose; for plasma Phe: Fig 3e, Pah^enu2 mice on defined diet, individual animals
Description: To modulate baseline plasma Phe levels, 8–13-week-old male Pah^enu2 mice were maintained on isocaloric amino acid–defined diets with either 7.5 g/kg (0.75%, Teklad T.2018.15), 4.5 g/kg (0.45%, Teklad custom formulation), or 2.25 g/kg (0.225%, Teklad custom formulation) L-Phe for 2 weeks before a single dose administration of 200 mg/kg JN-170 or vehicle. Animals had unrestricted access to food and water throughout the study. Serial plasma samples were taken predose as well as 1, 3, 8, 24 and 48 hours after the dose. For all studies, mice were dosed at 7:00 a.m. ± 30 minutes to synchronize with circadian rhythm.
Plasma sample analyses were carried out by liquid chromatography tandem mass spectrometry (LC-MS/MS). Plasma samples were mixed 1:1 with carbamazepine or ^13C6-Phe as internal standards for JN-170 and Phe, respectively. Plasma proteins were precipitated by adding 4 volumes of acetonitrile (ACN) and 0.1% formic acid (FA) followed by centrifugation for 5 minutes at 2,100g. Supernatants were diluted 1:1 in ACN and 0.1% FA. For JN-170, a Waters HSS T3 reversed phase column was used for separation using a binary gradient of 0.1% FA in water (mobile phase A) to 0.1% in ACN (mobile phase B). At a flow rate of 0.8 mL/min, the mobile phase gradient increased from an initial 25% phase B to 95% phase B over 30 seconds. After, 1.5 minutes, the gradient was returned to 25% mobile phase B. For detection of Phe, an Acquity UPLC ethylene bridged hybrid (BEH) amide column was used, with a binary gradient of 10 mM ammonium acetate in 95:5:1 H2O:ACN:FA (mobile phase A) to 10 mM ammonium acetate in 95:5:1 ACN:H2O:FA (mobile phase B). At a flow rate of 0.5 mL/min, the mobile phase gradient changed from an initial 100% phase B to 50% phase B over 2.1 minutes. It was returned to 100% phase B after 4 minutes. Analytes were detected using a Sciex API-5500 in multiple reaction monitoring mode using an electrospray ionization source in the positive ion mode with the following ion transitions: m/z 435.2/84.1 (JN-170), 237.1/194.1 (carbamazepine), 166.1/120.1 (Phe), 172.2/126.2 for (^13C6-Phe). Analyte concentrations were calculated with a 1/×^2 linear regression over a concentration range of 1 or 2 to 5,000 ng/mL for JN-170 and 0.05–100 ng/mL for Phe.

Structure (SMILES): N#Cc1ccc(-c2noc([C@]3(C(F)(F)F)CCN(C(=O)NCCC4(N)CC4)C3)n2)cc1 [JN-170]
- mean plasma Phe lower than vehicle (0.225% Phe diet): 47%
- plasma Phe, mean ± SD (0.225% Phe diet): 309 ± 108 µM
- mean plasma Phe lower than vehicle (0.45% Phe diet): 61%
- plasma Phe, mean ± SD (0.45% Phe diet): 416 ± 117 µM
- mean plasma Phe lower than vehicle (0.75% Phe diet): 59%
- plasma Phe, mean ± SD (0.75% Phe diet): 621 ± 141 µM
- plasma Phe (time 0 h): 2027 and 2042 and 2474 and 2301 and 2768 and 2728 and 2723 and 1767 and 1191 and 962 and 924 and 848 and 1013 and 971 and 1061 and 1569 and 1364 and 1314
- plasma Phe (time 1 h): 884 and 990 and 803 and 886 and 865 and 914 and 675 and 1252 and 589 and 1292 and 1010 and 927 and 813 and 907 and 727 and 787 and 898 and 1296 and 942 and 978
- plasma Phe (time 3 h): 973 and 455 and 892 and 697 and 736 and 559 and 671 and 509 and 763 and 495 and 635 and 669 and 535 and 654 and 529 and 586 and 485 and 516 and 441 and 769 and 511 and 574
- plasma Phe (time 8 h): 938 and 505 and 720 and 502 and 600 and 578 and 665 and 577 and 945 and 657 and 745 and 672 and 637 and 621 and 611 and 518 and 376 and 392 and 476 (2×) and 629
- plasma Phe (time 24 h): 1767 and 1553 and 1370 and 1402 and 1592 and 597 and 1045 and 1827 and 1448 and 1043 and 988 and 1535 and 1388 and 1336 and 1203 and 1339 and 1578 and 871 and 1063
